Data published in ChEMBL document CHEMBL4715920, “Novel Spiropiperidine Allosteric Modulators of Nicotinic Acetylcholine Receptors for Treating Central Nervous System Disorders” (ACS Med Chem Lett, 2021).

Biological target: Neuronal acetylcholine receptor subunit alpha-7 (Homo sapiens, UniProt P36544)
Assay: Positive allosteric modulation of recombinant human AChR alpha7 expressed in HEK cells co-expressing RIC-3 at -60 mV holding potential treated for 58 sec followed by acetylcholine applied for 1 sec measured potentiation effect by automated patch clamp electrophysiological method
Format: cell-based

Neuronal acetylcholine receptor subunit alpha-7, sequence (P36544 whole entry): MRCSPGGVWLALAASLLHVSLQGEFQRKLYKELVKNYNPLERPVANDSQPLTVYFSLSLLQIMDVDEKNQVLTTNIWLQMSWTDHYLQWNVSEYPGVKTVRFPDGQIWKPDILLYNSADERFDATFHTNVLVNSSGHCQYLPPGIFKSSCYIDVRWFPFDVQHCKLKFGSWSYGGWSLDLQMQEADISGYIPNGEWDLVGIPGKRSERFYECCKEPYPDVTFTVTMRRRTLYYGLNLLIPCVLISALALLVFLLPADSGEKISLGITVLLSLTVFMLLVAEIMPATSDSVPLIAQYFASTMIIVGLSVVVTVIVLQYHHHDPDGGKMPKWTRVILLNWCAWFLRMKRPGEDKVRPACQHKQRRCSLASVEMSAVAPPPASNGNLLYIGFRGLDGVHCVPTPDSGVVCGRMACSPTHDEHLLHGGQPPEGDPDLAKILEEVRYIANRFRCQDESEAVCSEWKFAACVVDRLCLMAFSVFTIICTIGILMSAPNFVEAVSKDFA

Row | Compound | EC50 [nM]
1 | NS(=O)(=O)N1CCC2(CC1)C(COc1noc(-c3ccccc3)n1)C2(F)F (stereo unspecified) | ≤ 100
2 | NS(=O)(=O)N1CCC2(CC1)C[C@H]2COc1cccc(NCC(F)(F)F)n1 | ≤ 100
3 | NS(=O)(=O)N1CCC2(CC1)C(COc1ccnc(OC(F)F)c1)C2(F)F (stereo unspecified) | ≤ 100
4 | COc1ccc(Cl)cc1NC[C@@H]1CC12CCN(S(N)(=O)=O)CC2 | ≤ 100

Results, then the compound that gave them:

Row | EC50 [nM] | Compound
5 | ≤ 100 | COc1ccc(Cl)cc1SC[C@@H]1CC12CCN(S(N)(=O)=O)CC2
6 | ≤ 100 | COc1ccc(Cl)cc1NC(=O)[C@@H]1C(F)(F)C12CCN(S(N)(=O)=O)CC2
